Measurements taken from ChEMBL document CHEMBL2046276, “Molecular cloning, characterization, and inhibition studies of a β-carbonic anhydrase from Malassezia globosa, a potential antidandruff target” (J Med Chem, 2012).
In brackets after ≈: the same amount, converted by molar mass. Activity calls are given as the source filed them. The calls are words filed in the database; no cut-off is given here.

Columns and labels:
Malassezia dermatis = assay: microbe, parasite or virus in culture; conditions: CBS 9145, 168 h
[1] = microbe, parasite or virus in culture; conditions: Malassezia globosa, CBS 7966, 168 h
Malassezia pachydermatis [2] = assay: microbe, parasite or virus in culture; conditions: CBS 6536, 168 h
Malassezia furfur = assay: microbe, parasite or virus in culture; conditions: CBS 9569, 168 h
Carbonic anhydrase = molecular target: T1, Carbonic anhydrase (Candida albicans (strain SC5314 / ATCC MYA-2876) (Yeast), UniProt Q5AJ71)
T1 sequence (Q5AJ71 whole entry): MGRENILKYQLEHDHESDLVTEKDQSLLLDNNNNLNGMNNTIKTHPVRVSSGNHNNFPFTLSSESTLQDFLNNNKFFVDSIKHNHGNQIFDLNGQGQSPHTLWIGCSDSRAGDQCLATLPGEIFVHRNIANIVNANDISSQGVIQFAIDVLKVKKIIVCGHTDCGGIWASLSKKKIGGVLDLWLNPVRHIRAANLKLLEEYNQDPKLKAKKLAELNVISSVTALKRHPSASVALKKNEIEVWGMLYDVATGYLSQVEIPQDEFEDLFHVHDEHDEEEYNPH

Malassezia pachydermatis [3] = assay: Antimicrobial activity against Malassezia pachydermatis infected in CD-1 mouse model of dandruff assessed as improvement in skin appearance at 5% cream administered once daily for 6 days measured daily for 20 days; assay type: functional
Malassezia pachydermatis [4] = assay: Antimicrobial activity against Malassezia pachydermatis infected in CD-1 mouse model of dandruff assessed as fungal hyphae fragmentation at 5% cream administered once daily for 6 days measured daily for 20 days; assay type: functional
Malassezia pachydermatis [5] = assay: Antimicrobial activity against Malassezia pachydermatis infected in CD-1 mouse model of dandruff assessed as improvement in skin appearance at 2% cream administered once daily for 6 days measured daily for 20 days; assay type: functional
Malassezia pachydermatis [6] = assay: Antimicrobial activity against Malassezia pachydermatis infected in CD-1 mouse model of dandruff assessed as fungal hyphae fragmentation at 2% cream administered once daily for 6 days measured daily for 20 days; assay type: functional

**Q.** For `Nc1cc(Cl)c(S(N)(=O)=O)cc1S(N)(=O)=O`, which MIC (Malassezia dermatis) is on record?
**A.** Its MIC is 640 µg/mL (≈ 2240 µM).

**Q.** And the MIC [1]?
**A.** Its MIC is 640 µg/mL (≈ 2240 µM).

**Q.** And the MIC (Malassezia pachydermatis [2])?
**A.** Its MIC is 640 µg/mL (≈ 2240 µM).

**Q.** And the MIC (Malassezia furfur)?
**A.** Its MIC is 640 µg/mL (≈ 2240 µM).

**Q.** Which results are given for `Nc1ccc(S(N)(=O)=O)cc1` [SULFANILAMIDE]?
**A.** MIC (Malassezia dermatis): 160 µg/mL (≈ 929 µM); MIC [1]: 80 µg/mL (≈ 465 µM); MIC (Malassezia pachydermatis [2]): 10 µg/mL (≈ 58.1 µM); MIC (Malassezia furfur): 80 µg/mL (≈ 465 µM)

**Q.** With `NS(=O)(=O)Oc1ccc(Br)cc1` as the compound, how does the Ki (Carbonic anhydrase) read?
**A.** Its Ki is 715 nM.

**Q.** With `NS(=O)(=O)Oc1ccccc1` [PHENYLSULFAMATE] as the compound, how does the Ki (Carbonic anhydrase) read?
**A.** The Ki was 1970 nM.

**Q.** Which Ki (Carbonic anhydrase) does the source give for `NS(=O)(=O)Nc1ccc(Br)cc1` here?
**A.** Its Ki is 763 nM.

**Q.** With `Nc1cc(C(F)(F)F)c(S(N)(=O)=O)cc1S(N)(=O)=O` [2,4-DISULFAMYLTRIFLUOROMETHYLANILINE] as the compound, how does the MIC (Malassezia dermatis) read?
**A.** Its MIC is over 640 µg/mL.

**Q.** And the MIC [1]?
**A.** Its MIC is 320 µg/mL (≈ 1000 µM).

**Q.** And the MIC (Malassezia pachydermatis [2])?
**A.** The MIC was over 640 µg/mL.

**Q.** What about the MIC (Malassezia furfur) of the same compound?
**A.** Its MIC is over 640 µg/mL.

**Q.** For `Nc1ccccc1S(N)(=O)=O`, which MIC (Malassezia dermatis) is on record?
**A.** Its MIC is 640 µg/mL (≈ 3720 µM).

**Q.** What about the MIC [1] of the same compound?
**A.** The MIC was 640 µg/mL (≈ 3720 µM).

**Q.** And the MIC (Malassezia pachydermatis [2])?
**A.** The MIC was over 640 µg/mL.

**Q.** What about the MIC (Malassezia furfur) of the same compound?
**A.** Its MIC is 640 µg/mL (≈ 3720 µM).

**Q.** With `NS(=O)(=O)c1ccccc1` [BENZENESULFONAMIDE] as the compound, how does the MIC (Malassezia dermatis) read?
**A.** Its MIC is over 640 µg/mL.

**Q.** What about the MIC [1] of the same compound?
**A.** The MIC was 320 µg/mL (≈ 2040 µM).

**Q.** What about the MIC (Malassezia pachydermatis [2]) of the same compound?
**A.** Its MIC is 160 µg/mL (≈ 1020 µM).

**Q.** What about the Ki (Carbonic anhydrase) of the same compound?
**A.** Its Ki is 2360 nM.

**Q.** What about the MIC (Malassezia furfur) of the same compound?
**A.** The MIC was 160 µg/mL (≈ 1020 µM).

**Q.** Which Ki (Carbonic anhydrase) does the source give for `NS(=O)(=O)Nc1ccccc1` [PHENYLSULFAMIDE] here?
**A.** The Ki was 1910 nM.

**Q.** What does the source list for `NS(=O)(=O)c1ccc(Br)cc1`?
**A.** MIC (Malassezia dermatis): 320 µg/mL (≈ 1360 µM); MIC [1]: 320 µg/mL (≈ 1360 µM); MIC (Malassezia pachydermatis [2]): 320 µg/mL (≈ 1360 µM); Ki (Carbonic anhydrase): 894 nM; MIC (Malassezia furfur): 320 µg/mL (≈ 1360 µM)

**Q.** What does the source list for `NCc1ccc(S(N)(=O)=O)cc1` [MAFENIDE]?
**A.** MIC (Malassezia dermatis): 160 µg/mL (≈ 859 µM); MIC [1]: 160 µg/mL (≈ 859 µM); MIC (Malassezia pachydermatis [2]): 160 µg/mL (≈ 859 µM); MIC (Malassezia furfur): 320 µg/mL (≈ 1720 µM)

**Q.** With `NCCc1ccc(S(N)(=O)=O)cc1` as the compound, how does the MIC (Malassezia dermatis) read?
**A.** The MIC was 640 µg/mL (≈ 3200 µM).

**Q.** What about the MIC [1] of the same compound?
**A.** Its MIC is 320 µg/mL (≈ 1600 µM).

**Q.** And the MIC (Malassezia pachydermatis [2])?
**A.** Its MIC is 640 µg/mL (≈ 3200 µM).

**Q.** And the Activity (Malassezia pachydermatis [3])?
**A.** The Activity was 67%.

**Q.** And the Activity (Malassezia pachydermatis [4])?
**A.** The Activity was “Active”.

**Q.** And the MIC (Malassezia furfur)?
**A.** Its MIC is 640 µg/mL (≈ 3200 µM).

**Q.** With `Cc1ccc(S(N)(=O)=O)cc1` [P-TOLUENESULFONAMIDE] as the compound, how does the MIC [1] read?
**A.** Its MIC is 160 µg/mL (≈ 934 µM).

**Q.** What about the MIC (Malassezia furfur) of the same compound?
**A.** The MIC was 640 µg/mL (≈ 3740 µM).

**Q.** With `NS(=O)(=O)c1cc(Cl)c(Cl)c(S(N)(=O)=O)c1` [DICHLORPHENAMIDE] as the compound, how does the MIC (Malassezia dermatis) read?
**A.** Its MIC is over 640 µg/mL.

**Q.** What about the MIC [1] of the same compound?
**A.** Its MIC is 320 µg/mL (≈ 1050 µM).

**Q.** And the MIC (Malassezia pachydermatis [2])?
**A.** Its MIC is over 640 µg/mL.

**Q.** What about the MIC (Malassezia furfur) of the same compound?
**A.** Its MIC is over 640 µg/mL.

**Q.** For `CC(=O)N1CCN(c2ccc(OCC3COC(Cn4ccnc4)(c4ccc(Cl)cc4Cl)O3)cc2)CC1` (configuration not stated), which Activity (Malassezia pachydermatis [5]) is on record?
**A.** The Activity was “Active”.

**Q.** And the Activity (Malassezia pachydermatis [6])?
**A.** The Activity was “Active”.

**Q.** Which MIC (Malassezia dermatis) does the source give for `NS(=O)(=O)c1ccc(C(=O)O)cc1` [CARZENIDE] here?
**A.** The MIC was over 640 µg/mL.

**Q.** What about the MIC [1] of the same compound?
**A.** The MIC was 640 µg/mL (≈ 3180 µM).

**Q.** And the MIC (Malassezia pachydermatis [2])?
**A.** The MIC was 640 µg/mL (≈ 3180 µM).

**Q.** And the MIC (Malassezia furfur)?
**A.** The MIC was over 640 µg/mL.
